Test results: article PMC10374545, “A small molecule inhibitor of PTP1B and PTPN2 enhances T cell anti-tumor immunity” (Nature Communications, 2023)
Several values for one entry are separate records, joined by “and”; a condition that tells them apart may be missing. Equal entries are not always repeated.

How the values were obtained:
Format in all cases: in vivo, mouse
[1] = system: AT3-OVA mammary tumors; test: AT3-OVA mammary tumor growth in C57BL/6 mice; parameters: Tumour weights, individual mice: unit not given here; details: for Tumour growth, individual mice: Figure 5A; for Tumour growth, single mice: sizes in mm^2, Fig. 3A, listed as CMP-182, 10 mg/kg
Procedure: (§1) Male or female mice were injected subcutaneously with 5 × 10^5 MC38 tumor cells resuspended in 100 μl D-PBS into the flank. Alternatively, female mice were injected orthotopically with 5 × 10^5 AT3 or AT3-OVA or PTPN2-deleted AT3 or AT3-OVA tumor cells resuspended in 20 μl D-PBS into the fourth mammary fat pad. Tumor sizes were measured in two dimensions (mm^2) using electronic callipers two to three times per week as soon as tumors were palpable (20–25 mm^2).

[2] = system: MC38 colon tumors; test: MC38 colon tumor growth in C57BL/6 mice
Procedure: as §1

[3] = system: MC38 colon tumors; test: Tumor-infiltrating lymphocytes in MC38 tumors; parameters: CD4 EM, individual mice / CD8 EM, individual mice / GRZMB, individual mice / B cells, individual mice / NK cells, individual mice / Tregs, individual mice / MDSCs, individual mice: unit not given here
Procedure: Tumor-bearing mice were sacrificed and tumors were excised and digested at 37 °C for 30 min using a cocktail of 1 mg/ml collagenase type IV (Worthington Biochemicals) and 0.02 mg/ml DNase I (Sigma-Aldrich) in DMEM supplemented with 2% (v/v) FBS. Cells were passed through a 70 μm cell strainer (BD Biosciences) twice and processed for flow cytometry. For assessing T cell activation, cells were surface stained with fluorophore-conjugated antibodies to CD62L, CD44, PD-1, and TIM-3. For the assessment of NK cells, B cells, myeloid-derived suppressor cells (MDSCs), dendritic cells (DCs), and tumor-associated macrophages, cells were surface stained with fluorophore-conjugated antibodies to NK1.1, TCRβ, CD19, CD11b, CD11c, F4/80, Ly6C and Ly6G. For the detection of intracellular cytokines TNF and IFNγ, T cells were stimulated with PMA (20 ng/ml; Sigma-Aldrich) and ionomycin (1 μg/ml; Sigma-Aldrich) in the presence of GolgiPlug™ and GolgiStop™ (BD Biosciences) for 4 h at 37 °C in complete T cell medium. For the intracellular detection of granzyme B, cells were processed untreated without the addition of BD GolgiPlug™ and BD GolgiStop™.

[4] = Serum cytokines (BD Cytokine Bead Array) in AT3-OVA tumor-bearing mice
Procedure: Single-cell suspensions from spleens and lymph nodes were obtained as described previously. For the detection of intracellular cytokines and granzyme B, T cells were fixed and permeabilized with the BD Cytofix/Cytoperm kit according to the manufacturer’s instructions. Briefly, T cells were first surface stained with fluorophore-conjugated antibodies and then fixed followed by permeabilization on ice for 20 min. Fixed and permeabilized cells were stained for IFN-γ, TNF, and granzyme B for 45 min at room temperature. For the detection of intracellular FoxP3 the Foxp3/Transcription Factor Staining Buffer Set (eBioscience) was used according to the manufacturer’s instructions. Briefly, cells were fixed and permeabilized for 1 h on ice followed by intracellular staining at room temperature for 45 min. For the detection of serum cytokines, the BD CBA Mouse Inflammation Kit™ was used according to the manufacturers’ instructions.

[5] = MC38 tumours, Figure 4B, listed as CMP-182
[6] = MC38 tumours, Figure 4C, listed as CMP-182
[7] = Figure 10A, serum, individual mice, listed as CMP-182, in pg/mL (unit assumed)

## CC(C)(O)CCOc1ccc2cc(O)c(N3CC(=O)NS3(=O)=O)c(F)c2c1 [Compound 182, 5-(1-Fluoro-3-hydroxy-7-(3-hydroxy-3-methylbutoxy)naphthalen-2-yl)−1,2,5-thiadiazolidin-3-one 1,1-dioxide]
[1]; 10 mg/kg i.v.
  repression of tumor growth, dosing every two days compared with every three days: more pronounced
[1]; 10 mg/kg i.v., days 9-27, Supplementary Fig. 8
  AT3-OVA tumor growth, administration every three days: represses
[1]; 10 mg/kg intravenously every 2 days or every 3 days
  growth of AT3-OVA mammary tumors: effectively repressed the growth
[1]; AT-3-OVA, Figure 3A, column B, n=8
  Tumour weight d21 (median): 100.0, n=8
[1]; C57BL/6, CMP-182 10 mg, n=8, Figure 5B
  Tumour weights, individual mice: 126 and 340 and 344 and 76 and 85 and 190 and 183 and 281
[1]; C57BL/6, CMP-182 10 mg, n=8, day 0 post injection, in mm2
  Tumour growth, individual mice: 38.86 and 38.76 and 36.96 and 20 and 19.89 and 39.65 and 32.33 and 44.53
[1]; C57BL/6, CMP-182 10 mg, n=8, day 2 post injection, in mm2
  Tumour growth, individual mice: 46.62 and 45 and 45.75 and 21.2 and 22.26 and 46.15 and 36.4 and 52
[1]; C57BL/6, CMP-182 10 mg, n=8, day 4 post injection, in mm2
  Tumour growth, individual mice: 40.6 and 37.95 and 45.6 and 22.4 and 21.42 and 37.21 and 29.5 and 55.61
[1]; C57BL/6, CMP-182 10 mg, n=8, day 7 post injection, in mm2
  Tumour growth, individual mice: 35.1 and 40.02 and 49.4 and 25.2 and 27.54 and 44.85 and 32.5 and 53.6
[1]; C57BL/6, CMP-182 10 mg, n=8, day 9 post injection, in mm2
  Tumour growth, individual mice: 40.2 and 41.76 and 56.44 and 28.35 and 33.04 and 52.56 and 37.95 and 65.25
[1]; C57BL/6, CMP-182 10 mg, n=8, day 12 post injection, in mm2
  Tumour growth, individual mice: 40.8 and 47.74 and 66.43 and 30.15 and 33.63 and 55.5 and 42 and 70.2
[1]; C57BL/6, CMP-182 10 mg, n=8, day 15 post injection, in mm2
  Tumour growth, individual mice: 42 and 55.44 and 75.75 and 31.5 and 34.22 and 60.84 and 45.26 and 76
[1]; C57BL/6 n=8, time point 6, in mm2
  Tumour size AT-3-OVA (group mean): 21.8
[1]; C57BL/6 n=8, time point 8, in mm2
  Tumour size AT-3-OVA (group mean): 21.97
[1]; C57BL/6 n=8, time point 10, in mm2
  Tumour size AT-3-OVA (group mean): 23.3
[1]; C57BL/6 n=8, time point 13, in mm2
  Tumour size AT-3-OVA (group mean): 25.76
[1]; C57BL/6 n=8, time point 15, in mm2
  Tumour size AT-3-OVA (group mean): 29.09
[1]; C57BL/6 n=8, time point 17, in mm2
  Tumour size AT-3-OVA (group mean): 31.79
[1]; C57BL/6 n=8, time point 19, in mm2
  Tumour size AT-3-OVA (group mean): 33.9
[1]; C57BL/6 n=8, time point 21, in mm2
  Tumour size AT-3-OVA (group mean): 36.99
[1]; C57BL/6 n=8, time point 23, in mm2
  Tumour size AT-3-OVA (group mean): 41.18
[1]; C57BL/6 n=8, two-way RM ANOVA column mean, in mm2
  Tumour size AT-3-OVA, mean over all time points: 29.53
[1]; day 6 post injection (first dose), 10 mg/kg i.v., in mm2
  Tumour growth, single mice: 22.54 and 20.7 and 19.36 and 20.25 and 18.49 and 22.09 and 26.95 and 24
[1]; day 8 post injection, 10 mg/kg i.v., in mm2
  Tumour growth, single mice: 22.08 and 20.7 and 20.68 and 20.91 and 19.78 and 21.15 and 25.97 and 24.48
[1]; day 10 post injection, 10 mg/kg i.v., in mm2
  Tumour growth, single mice: 27.56 and 22.95 and 17.6 and 23.1 and 20.64 and 23.04 and 23.65 and 27.84
[1]; day 15 post injection, 10 mg/kg i.v., in mm2
  Tumour growth, single mice: 37.95 and 25.76 and 21.12 and 24.36 and 20.64 and 28.62 and 35.75 and 38.5
[1]; day 23 post injection, 10 mg/kg i.v., in mm2
  Tumour growth, single mice: 43.55 and 30 and 34.02 and 32.76 and 29.15 and 54.51 and 48.18 and 57.27
[2]; 10 mg, Figure 4A, listed as CMP-182, in mg (unit assumed)
  Tumour weights MC38, individual mice: 243 and 125 and 480 and 119 and 315
[2]; 10 mg, day 7 post injection, listed as CMP-182, in mm2
  Tumour growth MC38, individual mice: 20.3252 and 20.2131 and 15.2865 and 13.9084 and 14.2859
[2]; 10 mg, day 10 post injection, listed as CMP-182, in mm2
  Tumour growth MC38, individual mice: 21.1854 and 45.7254 and 22.9296 and 28.815 and 21.9308
[2]; 10 mg, day 13 post injection, listed as CMP-182, in mm2
  Tumour growth MC38, individual mice: 21.6489 and 72.4458 and 32.816 and 40.3221 and 29.9376
[2]; 10 mg, day 15 post injection, listed as CMP-182, in mm2
  Tumour growth MC38, individual mice: 31.85 and 42.18 and 22.5 and 27 and 32.94
[2]; 10 mg, day 16 post injection, listed as CMP-182, in mm2
  Tumour growth MC38, individual mice: 29.5394 and 119.382 and 44.1741 and 56.472 and 40.779
[2]; 10 mg, day 18 post injection, listed as CMP-182, in mm2
  Tumour growth MC38, individual mice: 34.2 and 109.2 and 37.7 and 77.4 and 61.62
[2]; 10 mg, day 20 post injection, listed as CMP-182, in mm2
  Tumour growth MC38, individual mice: 38.76 and 109.2 and 38.35 and 60.8 and 61.62
[2]; 10 mg/kg i.v. every 2 days
  growth of subcutaneous MC38 colorectal tumors: repressed the growth
[2]; Figure 4A (MC38), CMP-182 10 mg, n=5, line printed as AT-3, in mm2
  Tumour size, mean over all time points: 42.78
[2]; MC38 tumours, CMP-182 10 mg, Figure 4A
  Tumour weights, median: 243.0, n=5
[2]; MC38 tumours, CMP-182 10 mg, n=5, time point 7, Figure 4A, in mm2
  Tumour size, Predicted (LS) mean 2: 16.8
[2]; MC38 tumours, CMP-182 10 mg, n=5, time point 10, Figure 4A, in mm2
  Tumour size, Predicted (LS) mean 2: 28.12
[2]; MC38 tumours, CMP-182 10 mg, n=5, time point 13, Figure 4A, in mm2
  Tumour size, Predicted (LS) mean 2: 39.43
[2]; MC38 tumours, CMP-182 10 mg, n=5, time point 15, Figure 4A, in mm2
  Tumour size, Predicted (LS) mean 2: 31.29
[2]; MC38 tumours, CMP-182 10 mg, n=5, time point 16, Figure 4A, in mm2
  Tumour size, Predicted (LS) mean 2: 58.07
[2]; MC38 tumours, CMP-182 10 mg, n=5, time point 18, Figure 4A, in mm2
  Tumour size, Predicted (LS) mean 2: 64.02
[2]; MC38 tumours, CMP-182 10 mg, n=5, time point 20, Figure 4A, in mm2
  Tumour size, Predicted (LS) mean 2: 61.75
[3]; 10 mg/kg i.v.
  TILs in MC38 tumors: increased TILs
[3]; [5]
  CD4 EM, individual mice: 7887.52 and 30840.7 and 10292.6 and 20601 and 9909.06
  CD8 EM, individual mice: 15044.4 and 39708.3 and 17222.4 and 39521.3 and 13554.1
  GRZMB, individual mice: 88.5 and 78.2 and 82.1 and 82.7 and 77.1
  PD-1 TIM-3, individual mice: 71 and 72.3 and 61.5 and 79.9 and 67.1
[3]; [6]
  B cells, individual mice: 1614.8 and 2825.59 and 875.433 and 4615.54 and 1539.85
  MDSCs, individual mice: 35014.8 and 125819 and 42394.5 and 66581.6 and 40317.8
  NK cells, individual mice: 12195.1 and 31635.4 and 14041.5 and 15109.2 and 9658.51
  Tregs, individual mice: 1910.56 and 8524.67 and 3417.74 and 9313.01 and 2270.7
[4]; 10 mg/kg i.v.
  serum levels of pro-inflammatory cytokines IL-6, IFNγ and TNF: not significantly increased
[4]; Figure 10A, median, n=8
  Serum IFNg 2nd cohort, median: 10.56, n=8
  Serum IL-6 2nd cohort, median: 8.881, n=8
  Serum TNF 2nd cohort, median: 15.88, n=8
[4]; [7]
  IFN g: 8.688 and 8.172 and 5.3329 and 65.9781 and 16.5587 and 24.0426 and 12.4297 and 4.946
  IL-6: 14.2361 and 23.6555 and 10.1071 and 7.655 and 5.591 and 5.72 and 7.01 and 68.8168
  TNF: 7.107 and 11.4953 and 23.094 and 50.0533 and 23.4075 and 14.0031 and 17.7649 and 12.4357
